Results: US20230339939A1 (Bayer Aktiengesellschaft, priority 2020, published 2023)
Like-named read-outs stand apart in the source and are kept apart here.

Assays:
[1] = biological target: wild-type Epidermal Growth Factor Receptor (EGFR) (Homo sapiens (Human), UniProt P00533); test: WT-EGFR Kinase Assay (TR-FRET, 2 mM ATP); format: biochemical
In short: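 GST-fused human EGFR fragment (R669-A1210) from Sf9 cells, typically 7.6 pg/μL, pre-incubated with compound 15 min at 22° C in Hepes pH 7.0 buffer with MgCl2, DTT and vanadate; biotinylated peptide substrate. After EDTA stop, phosphopeptide detected by TR-FRET (anti-phosphotyrosine Tb-cryptate/streptavidin-XL665), 665/620 nm emission ratio.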

CSNK1A1 = CSNK1A1 (Homo sapiens (Human), UniProt P48729); test: CSNK1A1 High ATP Assay (ADP-Glo, 1 mM ATP); format: biochemical; settings: median, read-out: CSNK1A1 high ATP assay IC50 [mol/l] (median)
Chain of CSNK1A1 (P48729 whole entry): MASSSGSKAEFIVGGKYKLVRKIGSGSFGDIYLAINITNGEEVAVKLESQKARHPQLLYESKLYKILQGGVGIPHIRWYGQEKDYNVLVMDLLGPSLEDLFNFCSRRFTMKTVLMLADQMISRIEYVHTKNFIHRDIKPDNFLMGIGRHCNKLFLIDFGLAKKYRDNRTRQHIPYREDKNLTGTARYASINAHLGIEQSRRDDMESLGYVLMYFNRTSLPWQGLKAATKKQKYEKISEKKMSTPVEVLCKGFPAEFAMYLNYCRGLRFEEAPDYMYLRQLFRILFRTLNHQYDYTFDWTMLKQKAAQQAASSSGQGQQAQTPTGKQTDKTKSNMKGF
Procedure: CSNK1A1-inhibitory activity of compounds of the present invention in presence of 1 mM adenosine-tri-phosphate (ATP) was quantified employing the CSNK1A1-high-ATP-assay as described in the following paragraphs. In essence, the enzyme activity is measured by quantification of the adenosine-di-phosphate (ADP), which is generated as a co-product of the enzyme reaction, via the “ADP-Glo™ Kinase Assay” kit from the company Promega. This detection system works as follows: In a first step the ATP not consumed in the kinase reaction is quantitatively converted to cAMP employing an adenylate cyclase (“ADP-Glo-reagent”), then the adenylate cyclase is stopped and the ADP generated in the kinase reaction converted to ATP which generates in a luciferase-based reaction a glow-luminescence signal (“Kinase Detection Reagent”).
Recombinant fusion protein of N-terminal Glutathion-S-Transferase (GST) and full-length human CSNK1A1, expressed by baculovirus infected insect cells and purified via Glutathion affinity chromatography, was purchased from Life Technologies (product no. PV4174) and used as enzyme. As substrate for the kinase reaction the biotinylated peptide biotin-Ahx-KRRRAL-pS-VASLPGL (C-terminus in amide form) was used which can be purchased e.g. from the company Biosyntan (Berlin-Buch, Germany).
For the assay 50 nl of a 100 fold concentrated solution of the test compound in DMSO was pipetted into a white low volume 384-well microtiter plate (Greiner Bio-One, Frickenhausen, Germany), 2 μL of a solution of CSNK1A1 in aqueous assay buffer [50 mM HEPES pH 7.5, 10% (v/v) glycerol, 10 mM MgCl2, 50 mM NaCl, 1 mM dithiothreitol, 0.01% (w/v) bovine serum albumin, 0.01% (v/v) Triton X-100] were added and the mixture was incubated for 15 min at 22° C. to allow pre-binding of the test compounds to the enzyme before the start of the kinase reaction. […] The concentration of CSNK1A1 was adjusted depending of the activity of the enzyme lot and was chosen appropriate to have the assay in the linear range, a typical concentration is about 0.4 ng/μL. The reaction was stopped by the addition of 2.5 μL of “ADP-Glo-reagent” (1:1.5 fold diluted with water) and the resulting mixture was incubated at 22° C. for 1 h to convert the ATP not consumed in the kinase reaction completely […]. Subsequently 2.5 μL of the “kinase detection reagent” (1.2 fold more concentrated than recommended by the producer) were added, the resulting mixture was incubated at 22° C. for 1 h and then the luminescence measured with a suitable measurement instrument (e.g. Viewlux™ from Perkin-Elmer). The amount of emitted light was taken as a measure for the amount of ADP generated and thereby for the activity of the CSNK1A1.

[2] = read-out: EGFR Wildtype 2 mM ATP IC50 [mol/l] (median)

Chain of wild-type Epidermal Growth Factor Receptor (EGFR) (P00533 669-1210): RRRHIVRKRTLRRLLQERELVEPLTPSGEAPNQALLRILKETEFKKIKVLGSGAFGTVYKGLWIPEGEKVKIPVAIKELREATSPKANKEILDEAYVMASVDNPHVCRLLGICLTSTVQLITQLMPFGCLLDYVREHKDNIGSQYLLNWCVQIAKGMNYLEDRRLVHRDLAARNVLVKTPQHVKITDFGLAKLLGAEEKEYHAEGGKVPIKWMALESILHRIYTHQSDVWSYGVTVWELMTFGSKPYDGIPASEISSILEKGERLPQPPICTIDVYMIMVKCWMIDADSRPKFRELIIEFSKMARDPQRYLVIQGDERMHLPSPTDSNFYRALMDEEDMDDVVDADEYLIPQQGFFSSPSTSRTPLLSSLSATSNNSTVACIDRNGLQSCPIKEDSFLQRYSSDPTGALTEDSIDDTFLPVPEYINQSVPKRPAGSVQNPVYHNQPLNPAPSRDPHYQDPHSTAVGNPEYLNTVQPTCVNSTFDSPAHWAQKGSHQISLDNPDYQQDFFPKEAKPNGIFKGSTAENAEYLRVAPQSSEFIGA

Cc1cc(CC(=O)Nc2cc(-c3[nH]c4cccnc4c3-c3ccccn3)ccn2)ccc1F [Example 41, 2-(4-fluoro-3-methylphenyl)-N-{4-[3-(pyridin-2-yl)-1H-pyrrolo[3,2-b]pyridin-2-yl]pyridin-2-yl}acetamide]
IC50 [1, 2]: > 20 µM | IC50 (CSNK1A1): 0.019 µM

O=C(Cc1ccc(F)cc1)Nc1cc(-c2[nH]c3cccnc3c2-c2ccccn2)ccn1 [Example 5, 2-(4-fluorophenyl)-N-{4-[3-(pyridin-2-yl)-1H-pyrrolo[3,2-b]pyridin-2-yl]pyridin-2-yl}acetamide]
IC50 [1, 2]: > 20 µM | IC50 (CSNK1A1): 0.0061 µM

CC(C(=O)Nc1cc(-c2[nH]c3cc(Cl)cnc3c2-c2ccccn2)ccn1)c1ccc(F)cc1 (stereo not drawn) [Example 52, N-{4-[6-chloro-3-(pyridin-2-yl)-1H-pyrrolo[3,2-b]pyridin-2-yl]pyridin-2-yl}-2-(4-fluorophenyl)propanamide]
IC50 [1, 2]: > 20 µM | IC50 (CSNK1A1): 0.382 µM

O=C(Cc1ccc(F)cc1)Nc1cc(-c2[nH]c3c(N4CCCC4=O)ccnc3c2-c2ccccn2)ccn1 [Example 40, 2-(4-fluorophenyl)-N-{4-[7-(2-oxopyrrolidin-1-yl)-3-(pyridin-2-yl)-1H-pyrrolo[3,2-b]pyridin-2-yl]pyridin-2-yl}acetamide]
IC50 [1, 2]: > 20 µM | IC50 (CSNK1A1): 0.0301 µM

CC(C)C(C(=O)Nc1cc(-c2[nH]c3ccc(F)nc3c2-c2ccccn2)ccn1)c1ccc(F)cc1 (single isomer, unassigned; (+)) [Example 26, (+)-2-(4-fluorophenyl)-N-{4-[5-fluoro-3-(pyridin-2-yl)-1H-pyrrolo[3,2-b]pyridin-2-yl]pyridin-2-yl}-3-methylbutanamide]
IC50 [1, 2]: > 20 µM | IC50 (CSNK1A1): 0.0486 µM

CC(C)C(C(=O)Nc1cc(-c2[nH]c3ccc(F)nc3c2-c2ccccn2)ccn1)c1ccc(F)cc1 (single isomer, unassigned; (-)) [Example 25, (−)-2-(4-fluorophenyl)-N-{4-[5-fluoro-3-(pyridin-2-yl)-1H-pyrrolo[3,2-b]pyridin-2-yl]pyridin-2-yl}-3-methylbutanamide]
IC50 ([1]; median): > 20 µM | IC50 (CSNK1A1): 2.32 µM

COCCc1ccnc2c(-c3ccccn3)c(-c3ccnc(NC(=O)Cc4ccc(F)cc4)c3)[nH]c12 [Example 36, 2-(4-fluorophenyl)-N-{4-[7-(2-methoxyethyl)-3-(pyridin-2-yl)-1H-pyrrolo[3,2-b]pyridin-2-yl]pyridin-2-yl}acetamide]
IC50 [1, 2]: > 20 µM | IC50 (CSNK1A1): 0.0318 µM

O=C(Cc1ccc(F)cc1)Nc1cc(-c2[nH]c3cccnc3c2-c2ccccc2)ccn1 [Example 14, 2-(4-fluorophenyl)-N-[4-(3-phenyl-1H-pyrrolo[3,2-b]pyridin-2-yl)pyridin-2-yl]acetamide]
IC50 ([1]; median): > 20 µM | IC50 [1, 2]: 19.1 µM | IC50 (CSNK1A1): 0.0455 µM

O=C(Cc1ccc(F)cc1)Nc1cc(-c2[nH]c3c(Cl)ccnc3c2-c2ccccn2)ccn1 [Example 22, N-{4-[7-chloro-3-(pyridin-2-yl)-1H-pyrrolo[3,2-b]pyridin-2-yl]pyridin-2-yl}-2-(4-fluorophenyl)acetamide]
IC50 [1, 2]: > 20 µM | IC50 (CSNK1A1): 0.0218 µM

CC(C(=O)Nc1cc(-c2[nH]c3cccnc3c2-c2ccccc2)ccn1)c1ccc(F)cc1 (racemic) [Example 11, 2-(4-fluorophenyl)-N-[4-(3-phenyl-1H-pyrrolo[3,2-b]pyridin-2-yl)pyridin-2-yl]propanamide]
IC50 ([1]; median): > 20 µM | IC50 (CSNK1A1): 0.321 µM

CC(C(=O)Nc1cc(-c2[nH]c3cccnc3c2-c2ccccn2)ccn1)c1ccc(F)cc1 (racemic) [Example 6, 2-(4-fluorophenyl)-N-{4-[3-(pyridin-2-yl)-1H-pyrrolo[3,2-b]pyridin-2-yl]pyridin-2-yl}propanamide]
IC50 ([1]; median): > 20 µM | IC50 (CSNK1A1): 0.00847 µM

COCC(C(=O)Nc1cc(-c2[nH]c3cc(F)cnc3c2-c2ccccn2)ccn1)c1ccc(F)cc1 (racemic) [Example 45, (2RS)-2-(4-fluorophenyl)-N-[4-[6-fluoro-3-(2-pyridyl)-1H-pyrrolo[3,2-b]pyridin-2-yl]-2-pyridyl]-3-methoxy-propanamide]
IC50 ([1]; median): > 20 µM | IC50 (CSNK1A1): 0.0388 µM

COc1ccc2[nH]c(-c3ccnc(NC(=O)Cc4ccc(F)cc4)c3)c(-c3ccccn3)c2n1 [Example 32, 2-(4-fluorophenyl)-N-{4-[5-methoxy-3-(pyridin-2-yl)-1H-pyrrolo[3,2-b]pyridin-2-yl]pyridin-2-yl}acetamide]
IC50 [1, 2]: > 20 µM | IC50 (CSNK1A1): 0.0233 µM

CC(C(=O)Nc1cc(-c2[nH]c3ccc(F)nc3c2-c2ccccn2)ccn1)c1ccc(F)cc1 (racemic) [Example 1, 2-(4-fluorophenyl)-N-{4-[5-fluoro-3-(pyridin-2-yl)-1H-pyrrolo[3,2-b]pyridin-2-yl]pyridin-2-yl}propanamide]
IC50 ([1]; median): > 20 µM | IC50 (CSNK1A1): 0.016 µM

CC(C(=O)Nc1cc(-c2[nH]c3cccnc3c2-c2ccccn2)ccn1)c1ccc(F)cc1 (single isomer, unassigned; (-)) [Example 8, (−)-2-(4-fluorophenyl)-N-{4-[3-(pyridin-2-yl)-1H-pyrrolo[3,2-b]pyridin-2-yl]pyridin-2-yl}propanamide]
IC50 [1, 2]: > 20 µM | IC50 (CSNK1A1): 0.334 µM

O=C(Cc1ccc(F)cc1)Nc1cc(-c2[nH]c3ccc(F)nc3c2-c2ccccn2)ccn1 [Example 4, 2-(4-fluorophenyl)-N-{4-[5-fluoro-3-(pyridin-2-yl)-1H-pyrrolo[3,2-b]pyridin-2-yl]pyridin-2-yl}acetamide]
IC50 [1, 2]: > 20 µM | IC50 (CSNK1A1): 0.00572 µM

CC(C(=O)Nc1cc(-c2[nH]c3cccnc3c2-c2ccccn2)ccn1)c1ccc(F)cc1 (single isomer, unassigned; (+)) [Example 7, (+)-2-(4-fluorophenyl)-N-{4-[3-(pyridin-2-yl)-1H-pyrrolo[3,2-b]pyridin-2-yl]pyridin-2-yl}propanamide]
IC50 ([1]; median): > 20 µM | IC50 (CSNK1A1): 0.00432 µM

Cc1cc2[nH]c(-c3ccnc(NC(=O)C(C)c4ccc(F)cc4)c3)c(-c3ccccn3)c2nc1F (racemic) [Example 28, N-{4-[5-fluoro-6-methyl-3-(pyridin-2-yl)-1H-pyrrolo[3,2-b]pyridin-2-yl]pyridin-2-yl}-2-(4-fluorophenyl)propanamide]
IC50 ([1]; median): > 20 µM | IC50 (CSNK1A1): 0.0591 µM

O=C(Cc1ccc(Cl)cc1)Nc1cc(-c2[nH]c3cccnc3c2-c2ccccn2)ccn1 [Example 42, 2-(4-chlorophenyl)-N-{4-[3-(pyridin-2-yl)-1H-pyrrolo[3,2-b]pyridin-2-yl]pyridin-2-yl}acetamide]
IC50 [1, 2]: > 20 µM | IC50 (CSNK1A1): 0.00714 µM

COc1ccnc2c(-c3ccccn3)c(-c3ccnc(NC(=O)Cc4ccc(F)cc4)c3)[nH]c12 [Example 31, 2-(4-fluorophenyl)-N-{4-[7-methoxy-3-(pyridin-2-yl)-1H-pyrrolo[3,2-b]pyridin-2-yl]pyridin-2-yl}acetamide]
IC50 [1, 2]: > 20 µM | IC50 (CSNK1A1): 0.00563 µM

O=C(Cc1ccc(F)cc1)Nc1cc(-c2[nH]c3cccnc3c2-c2ccc(Cl)s2)ccn1 [Example 17, N-{4-[3-(5-chlorothiophen-2-yl)-1H-pyrrolo[3,2-b]pyridin-2-yl]pyridin-2-yl}-2-(4-fluorophenyl)acetamide]
IC50 [1, 2]: > 20 µM | IC50 (CSNK1A1): 0.0873 µM

O=C(Cc1ccccc1)Nc1cc(-c2[nH]c3cccnc3c2-c2ccccn2)ccn1 [Example 46, 2-phenyl-N-(4-(3-(pyridin-2-yl)-1H-pyrrolo[3,2-b]pyridin-2-yl)pyridin-2-yl)acetamide]
IC50 [1, 2]: > 20 µM | IC50 (CSNK1A1): 0.0146 µM
